The nature of the series: Stability of oxygen-18 labeled organic acids in the sample preparation procedure (L/L extraction, MTBSTFA derivatization, GC/MS). The settings on record: for stability of the labeled acid (in words): prior to L/L extraction, during an 80 minute and during a 120 minute L/L extraction.
The mark [1] stands for this setting: Before L/L extraction, in diluted normal human urine, pH 1, ethyl-acetate extraction, GC/MS [M-57]+.

Regarding `CC(C)CC(O)C(=O)O` (stereo not drawn) [2-hydroxy isocaproic acid], the “stability of the labeled acid (in words)” value is given as “exhibited stability”. Besides, where the note is “Before L/L extraction”, the Single labeled is on record as 15.6% and the Unlabeled is listed as 0.4%. Under setting [1], this molecule registered a Double labeled of 84%. Besides, for the setting “L/L 80 min. extraction”, the Double labeled is 83%, the Single labeled is 16.5% and the Unlabeled is 0.5%. Besides, for the setting “L/L 120 min. extraction”, the Double labeled was 79%, the Single labeled is 20.6% and the Unlabeled was found to be 0.4%.

With `CC(O)C(C)C(=O)O` (stereo not drawn) [3-hydroxy-2-methyl butyric acid], the “stability of the labeled acid (in words)” value is recorded as “exhibited stability”. For the setting “Before L/L extraction”, this molecule displayed a Single labeled of 14.9% and an Unlabeled of 0.1%. For the same molecule, the Double labeled under setting [1] was determined as 85%. In addition, for the setting “L/L 80 min. extraction”, the Double labeled is 85%, the Single labeled stood at 14.9% and the Unlabeled stood at 0.1%. Under “L/L 120 min. extraction”, this molecule came in with a Double labeled of 85%, a Single labeled of 14.7% and an Unlabeled of 0.3%.

For the molecule `O=C(O)Cc1ccc(O)cc1` [4-hydroxy phenyl acetic acid], the “stability of the labeled acid (in words)” value is “exhibited stability”. For the setting “Before L/L extraction”, the Single labeled is on record as 15.5% and the Unlabeled is 0.8%. Under setting [1], this molecule gave a Double labeled of 83.7%. Also, for the setting “L/L 80 min. extraction”, the Double labeled was 81%, the Single labeled was 15.8% and the Unlabeled stood at 3.2%. For the setting “L/L 120 min. extraction”, this molecule registered a Double labeled of 78%, a Single labeled of 19.7% and an Unlabeled of 2.3%.

Take `CCCC(=O)NCC(=O)O` [Oxygen-18-Containing Butyryl Glycine, Butyryl glycine]: the “stability of the labeled acid (in words)” value is listed as “exhibited stability”. Where the note is “Before L/L extraction”, this molecule gave a Single labeled of 14.5% and an Unlabeled of 0.5%. This molecule also had a Double labeled under setting [1] of 85%. Moreover, under “L/L 80 min. extraction”, the Double labeled amounted to 85%, the Single labeled is given as 14.8% and the Unlabeled turned out to be 0.2%. In addition, for the setting “L/L 120 min. extraction”, the Double labeled is listed as 83%, the Single labeled is 16.2% and the Unlabeled was 0.8%.

Take `CC=CC(=O)NCC(=O)O` [Oxygen-18-Containing Crotonyl Glycine, Crotonyl glycine]: the “stability of the labeled acid (in words)” value was “exhibited stability”. Moreover, for the setting “Before L/L extraction”, the Single labeled stood at 15.5% and the Unlabeled is reported as 0.1%. For the same molecule, the Double labeled under setting [1] is 84%. Where the note is “L/L 80 min. extraction”, the Double labeled came to 85%, the Single labeled is listed as 14.8% and the Unlabeled was determined as 0.2%. Where the note is “L/L 120 min. extraction”, this molecule registered a Double labeled of 81%, a Single labeled of 17.4% and an Unlabeled of 1.6%.

On to `O=C(O)CCCC(=O)O` [Oxygen-18-Containing Glutaric Acid, Glutaric acid], for which the “stability of the labeled acid (in words)” value is “exhibited stability”. For the same molecule, under “Before L/L extraction”, the “Oxygen 18 × 1” value is reported as 0.4%, the “Oxygen 18 × 2” value turned out to be 3.5%, the “Oxygen 18 × 3” value is recorded as 27% and the “Oxygen 18 × 4” value is 69%. In addition, the Unlabeled (Before L/L extraction) was found to be 0.1%. Moreover, under “L/L 80 min. extraction”, the “Oxygen 18 × 1” value was found to be 0.8%, the “Oxygen 18 × 2” value was 3%, the “Oxygen 18 × 3” value is on record as 28% and the “Oxygen 18 × 4” value came to 68%. Also, the Unlabeled (L/L 80 min. extraction) is listed as 0.2%. For the same molecule, for the setting “L/L 120 min. extraction”, the “Oxygen 18 × 1” value worked out at 0.8%, the “Oxygen 18 × 2” value is given as 4%, the “Oxygen 18 × 3” value was 30% and the “Oxygen 18 × 4” value is 65%. In addition, the Unlabeled (L/L 120 min. extraction) is listed as 0.2%.

Regarding `O=C(O)C(O)CO` (stereo not drawn) [Oxygen-18-Containing Glyceric Acid, Glyceric acid], the “stability of the labeled acid (in words)” value is on record as “exhibited stability”. Also, under “Before L/L extraction”, the Single labeled is 13% and the Unlabeled is given as 0%. The molecule further had a Double labeled under setting [1] of 87%. Under “L/L 80 min. extraction”, the Double labeled came to 84%, the Single labeled was 15.5% and the Unlabeled is 0.5%. Under “L/L 120 min. extraction”, this molecule came in with a Double labeled of 81%, a Single labeled of 17.6% and an Unlabeled of 2.4%.

With `CC(=O)CC(=O)CCC(=O)O` [Oxygen-18-Containing Succinyacetone, Succinyacetone], the “stability of the labeled acid (in words)” value is on record as “exhibited stability”. For the setting “Before L/L extraction”, the “Oxygen 18 × 1” value was found to be 0.2%, the “Oxygen 18 × 2” value is on record as 2.8%, the “Oxygen 18 × 3” value was found to be 25% and the “Oxygen 18 × 4” value came out at 72%. For the same molecule, the Unlabeled (Before L/L extraction) was 0%. For the same molecule, where the note is “L/L 80 min. extraction”, the “Oxygen 18 × 1” value came out at 0.2%, the “Oxygen 18 × 2” value is on record as 2.8%, the “Oxygen 18 × 3” value is 27% and the “Oxygen 18 × 4” value stood at 70%. Under “L/L 80 min. extraction”, this molecule returned an Unlabeled of 0%. For the setting “L/L 120 min. extraction”, the “Oxygen 18 × 1” value was determined as 0.8%, the “Oxygen 18 × 2” value was 3%, the “Oxygen 18 × 3” value is 29% and the “Oxygen 18 × 4” value was found to be 67%. The Unlabeled (L/L 120 min. extraction) is recorded as 0.2%.

As to `CCC(O)C(=O)O` (stereo not drawn) [oxygen-18-containing 2-OH Butyric Acid, 2-hydroxy-butyric acid], the “stability of the labeled acid (in words)” value is listed as “exhibited stability”. Moreover, for the setting “Before L/L extraction”, the Single labeled turned out to be 15% and the Unlabeled amounted to 1%. Further, the Double labeled under setting [1] is 84%. Under “L/L 80 min. extraction”, this molecule displayed a Double labeled of 83%, a Single labeled of 17.4% and an Unlabeled of 0.11%. In addition, where the note is “L/L 120 min. extraction”, the Double labeled was determined as 80%, the Single labeled was 19.7% and the Unlabeled turned out to be 0.3%.
